From patent US20010042520A1, “Method for producing model animals for itching induced by disruption of cutaneous barrier function” (priority 2000, published 2001)

Columns and labels:
Assay type in all cases: in vivo, male ICR mice
[1] = test system: scratching action induced by the disruption of the cutaneous barrier function of mice; test: Scratching action of mice with disrupted cutaneous barrier function (acetone/diethylether mixture and distilled water, twice daily for 5 days); settings: for number of the scratching action based on that of the control group: 120 minutes recording, control average = 100%, average ± standard error, 8 mice; for number of the scratching action bouts per 120 minutes: 10% aqueous solution, control group 126.5±20.8, significant
Source text: (§1) A rostral part (4 cm^2, i.e. 2 cm×2 cm) of the back skin in each of 10 male ICR mice was shaved. Four days after the shaving, the following test was started: The skin was covered with a 2 cm×2 cm absorbent cotton impregnated with a mixture of acetone and diethylether (1:1) for 15 seconds. The skin was wiped to remove superfluous solvent, then covered with an absorbent cotton impregnated with distilled water for 30 seconds, and wiped in the same manner as that described above. This treatment for disrupting the cutaneous barrier function of the skin was conducted twice in daily at intervals of at least 8 hours for 5 days. In a control group, only the shaving was conducted.
On the next day after the completion of the 5 days treatment for disrupting the skin barrier function, each mouse was placed in each section of an acrylic acid resin cage (26×18×33 cm) divided into four sections (each section: 13×9×33 cm). After the mice was acclimatized to the cage in unmanned environment for 60 minutes, the action of each mouse was recorded for 120 minutes with a 8 mm video camera placed above the cage in such a manner that the 4 sections are in one scene. The scratching action was observed by playing back the video tape. The number of the scratching action by which the tip of a toe of a hind limb of the mouse touched the shaved part of the skin in 120 minutes was counted by the visual observation. One scratching action was a series of action beginning when the mouse raised its hind limb for starting the scratching and ending when the animal lowers its hind limb.
The effect of Terfenadine, which is a histamine H1 receptor antagonist, and that of Naloxone, which is an opioid antagonist, for relieving the itching were determined with the same test materials as those in Example 1. The barrier function-disrupting treatment was conducted in the same manner as that of Example 1. On the next day after the completion of the 5 days barrier function disrupting treatment, the scratching action of mice was recorded for 120 minutes in the same manner as that of Example 1. The observation of the behavior of the mice and the counting of the number of times of the scratching action were conducted in the same manner as that of Example 1. 10 mg/kg of Terfenadine which is the histamine H1 receptor antagonist, was perorally administered at 30 minutes before the starting to record the scratching action, or 1 mg/kg of Naloxone, which is an opioid receptor antagonist, was subcutaneously injected at 15 minutes before the starting to record the scratching action. […]
(§2) The effect of glycerol (humectant) on the skin manifestations and itching induced by the barrier disruption treatment of the present invention was determined by using the test animals similar to those used in Example 1. […] The skin manifestations were examined by the visual observation and the determination of hydration of the stratum corneum based on the relative electrostatic capacitance determined with Corneometer CM 825 (Courage+Khazaka Electronics, Cologne, Germany). Hydration of the stratum corneum was determined before starting the first barrier disrupting treatment every day and on the next day after the completion of the five days barrier disruption treatment. As for the scratching action, the scratching action of each mouse was filmed and recorded for 120 minutes in the same manner as that in Example 1 on next day after the completion of the five days barrier disruption treatment. […]

[2] = test system: hydration of the stratum corneum; test: Hydration of the stratum corneum by relative electrostatic capacitance (Corneometer CM 825) in barrier-disrupted mice
Source text: as §1
as §2, with “treatment.” for “treatment. As for the scratching action, the scratching action of each mouse was filmed and recorded for 120 minutes in the same manner as that in Example 1 on next day after the completion of the five days barrier disruption treatment.”

[3] = test system: formation of scales and wrinkles induced by the cutaneous barrier disruption; test: Visual observation of skin manifestations (scales and wrinkles) in barrier-disrupted mice
Source text: as §1
as §2, with “treatment.” for “treatment. As for the scratching action, the scratching action of each mouse was filmed and recorded for 120 minutes in the same manner as that in Example 1 on next day after the completion of the five days barrier disruption treatment.”

[4] = 10 mg/kg perorally 30 minutes before recording

C=CCN1CC[C@]23c4c5ccc(O)c4O[C@H]2C(=O)CC[C@@]3(O)[C@H]1C5 [Naloxone]
number of the scratching action based on that of the control group ([1]; 1 mg/kg subcutaneously 15 minutes before recording, significant vs control (5%)): 42.5±13.1%

CC(C)(C)c1ccc(C(O)CCCN2CCC(C(O)(c3ccccc3)c3ccccc3)CC2)cc1 (stereo not drawn) [Terfenadine]
suppressing effect on the scratching action [1, 4]: no suppressing effect was recognized | number of the scratching action based on that of the control group [1, 4]: 124.2±49.3%

OCC(O)CO [glycerol]
number of the scratching action bouts per 120 minutes ([1]; 50 μl applied for 5 days, one hour after each barrier disruption treatment): 42.5±10.0 per 120 minutes | number of the scratching action bouts per 120 minutes ([1]; 50 μl applied for one day (twice on the fifth day)): 76.5±14.6 per 120 minutes | hydration of the stratum corneum (relative electrostatic capacitance) ([2]; 10% aqueous solution applied for 5 days, next day after the 5 days barrier disrupting treatment, 40.0±1.2 before start, control 15.5±2.1): 44.7±3.0 | hydration of the stratum corneum (relative electrostatic capacitance) ([2]; 10% aqueous solution applied for one day, recovered from 20.5±1.3 after 4 days of treatment, 43.5±1.3 before start): 41.3±2.6 | formation of scales and wrinkles induced by the cutaneous barrier disruption ([3]; 10% aqueous solution applied for 5 days): completely inhibited | scales and wrinkle formation ([3]; 10% aqueous solution applied for one day): slight scales and wrinkle formation was observed
